Reference: US9216965B2, “Amino-quinolines as kinase inhibitors” (GlaxoSmithKline Intellectual Property Development Limited, priority 2012, dated 2015)
Counter-ions that a name gives are not always drawn.

Each compound was assayed against T1, RIPK2 (Homo sapiens, UniProt O43353) (assay: Fluorescent polarization based binding assay at the ATP binding pocket of RIPK2). Conditions: full length FLAG His tagged RIPK2; competition with fluorescently labeled ATP competitive ligand (5 nM); mean of a minimum of 2 experiments.
T1 construct: Full length FLAG His tagged RIPK2 was purified from a Baculovirus expression system; FLAG (N); 6His (N); made in house; host or cells: Spodoptera frugiperda (Sf9) insect cells, baculovirus
T1 sequence (O43353 whole entry): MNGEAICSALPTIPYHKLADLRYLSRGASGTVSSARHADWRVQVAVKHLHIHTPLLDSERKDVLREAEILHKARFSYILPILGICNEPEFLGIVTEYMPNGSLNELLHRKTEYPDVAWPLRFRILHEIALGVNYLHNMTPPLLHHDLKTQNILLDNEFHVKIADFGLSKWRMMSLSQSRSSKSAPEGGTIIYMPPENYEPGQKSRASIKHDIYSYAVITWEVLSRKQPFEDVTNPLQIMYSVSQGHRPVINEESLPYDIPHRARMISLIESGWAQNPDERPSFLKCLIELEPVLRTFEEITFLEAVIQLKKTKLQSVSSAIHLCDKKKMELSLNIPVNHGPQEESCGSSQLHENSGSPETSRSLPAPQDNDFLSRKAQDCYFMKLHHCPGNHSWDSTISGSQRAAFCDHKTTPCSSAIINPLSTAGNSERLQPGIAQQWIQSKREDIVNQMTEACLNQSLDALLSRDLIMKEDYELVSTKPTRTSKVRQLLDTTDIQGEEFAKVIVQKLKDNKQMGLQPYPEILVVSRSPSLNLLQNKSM
Description: A fluorescent polarization based binding assay was developed to quantitate interaction of novel test compounds at the ATP binding pocket of RIPK2, by competition with a fluorescently labeled ATP competitive ligand. Full length FLAG His tagged RIPK2 was purified from a Baculovirus expression system and was used at a final assay concentration of twice the KDapparent. […] Both the enzyme and ligand were prepared in solutions in 50 mM HEPES pH7.5, 150 mM NaCl, 10 mM MgCl2, 1 mM DTT, and 1 mM CHAPS. Test compounds were prepared in 100% DMSO and 100 nL was dispensed to individual wells of a multiwell plate. Next, 5 ul RIPK2 was added to the test compounds at twice the final assay concentration, and incubated at rt for 10 min. Following the incubation, 5 ul of the fluorescent labeled ligand solution, was added to each reaction, at twice the final assay concentration, and incubated at rt for at least 10 min. Finally, samples were read on an instrument capable of measuring fluorescent polarization. Test compound inhibition was expressed as percent (%) inhibition of internal assay controls.
For concentration/dose response experiments, normalized data were fit and pIC50s determined using conventional techniques.
Gateway® LR cloning was used to site-specifically recombine RIPK2 downstream to an N-terminal FLAG-6His contained within the destination vector pDEST8-FLAG-His6 according to the protocol described by Invitrogen. Transfection into Spodoptera frugiperda (Sf9) insect cells was performed using Cellfectin® (Invitrogen), according to the manufacturer's protocol.
An IC50 of 3.98 nM was found for Cc1n[nH]c(Nc2ccnc3cc(OCC(C)O)c(S(=O)(=O)C(C)(C)C)cc23)c1C (racemic) [Example 1, 1-((6-(tert-Butylsulfonyl)-4-((3,4-dimethyl-1H-pyrazol-5-yl)amino)quinolin-7-yl)oxy)propan-2-ol] in this work.
An IC50 of 3.16 nM was found for Cc1n[nH]c(Nc2ccnc3cc(OC[C@H](C)O)c(S(=O)(=O)C(C)(C)C)cc23)c1C [2(S), (S)-1-((6-(tert-butylsulfonyl)-4-((3,4-dimethyl-1H-pyrazol-5-yl)amino)quinolin-7-yl)oxy)propan-2-ol, hydrochloride] in this work.
An IC50 of 5.01 nM was found for Cc1[nH]nc(Nc2ccnc3cc(OCC(F)(F)F)c(S(=O)(=O)C(C)(C)C)cc23)c1C [Example 7, 6-(tert-butylsulfonyl)-N-(4,5-dimethyl-1H-pyrazol-3-yl)-7-(2,2,2-trifluoroethoxy) quinolin-4-amine] in this work.
An IC50 of 6.31 nM was found for Cc1n[nH]c(Nc2ccnc3cc(OCC(C)(C)O)c(S(=O)(=O)C(C)(C)C)cc23)c1C [Example 4, 1-((6-(tert-Butylsulfonyl)-4-((3,4-dimethyl-1H-pyrazol-5-yl)amino)quinolin-7-yl)oxy)-2-methylpropan-2-ol] in this work.
An IC50 of 5.01 nM was found for Cc1n[nH]c(Nc2ccnc3cc(OCC(F)F)c(S(=O)(=O)C(C)(C)C)cc23)c1C [Example 5, 6-(tert-Butylsulfonyl)-7-(2,2-difluoroethoxy)-N-(3,4-dimethyl-1H-pyrazol-5-yl)quinolin-4-amine] in this work.
An IC50 of 3.98 nM was found for COCCCOc1cc2nccc(Nc3[nH]nc(C)c3C)c2cc1S(=O)(=O)C(C)(C)C [Example 6, 6-(tert-Butylsulfonyl)-N-(3,4-dimethyl-1H-pyrazol-5-yl)-7-(3-methoxypropoxy)quinolin-4-amine] in this work.
An IC50 of 3.16 nM was found for Cc1n[nH]c(Nc2ccnc3cc(OC[C@@H](C)O)c(S(=O)(=O)C(C)(C)C)cc23)c1C [2(R), (R)-1-((6-(tert-Butylsulfonyl)-4-((3,4-dimethyl-1H-pyrazol-5-yl)amino)quinolin-7-yl)oxy)propan-2-ol, hydrochloride] in this work.
An IC50 of 15.8 nM was found for Cc1n[nH]c(Nc2ccnc3cc(F)c(S(=O)(=O)C(C)(C)C)cc23)c1C [Example 10, 6-(tert-Butylsulfonyl)-N-(3,4-dimethyl-1H-pyrazol-5-yl)-7-fluoroquinolin-4-amine] in this work.
